Data reported in patent publication US9096615B2, “Bridged bicyclic amino thiazine dioxide compounds as inhibitors of beta-secretase and methods of use thereof” (AMGEN INC., priority 2013, dated 2015).
Read-outs that look alike come from different tables or passages of the source.

Tests used:
[1] = system: Aβ40 in conditioned medium of cells stably expressing Amyloid Precursor Protein (APP); assay: In vitro BACE cell-based assay (HEK cell assay, Aβ40 sandwich ELISA); details: Homo sapiens, HEK293
Description: In Vitro BACE Cell-Based Assay
The cell-based assay measures inhibition or reduction of Aβ40 in conditioned medium of test compound treated cells expressing amyloid precursor protein.
Cells stably expressing Amyloid Precursor Protein (APP) were plated at a density of 40K cells/well in 96 well plates (Costar). The cells were cultivated for 24 hours at 37° C. and 5% CO2 in DMEM supplemented with 10% FBS. The test compounds were then added to cells in 10-point dose response concentrations with the starting concentration being either 100 μM or 10 μM. The compounds were diluted from stock solutions in DMSO and the final DMSO concentration of the test compounds on cells was 0.1%. After 24 h of incubation with the test compounds the supernatant conditioned media was collected and the Aβ 40 levels were determined using a sandwich ELISA. The IC50 of the compound was calculated from the percent of control or percent inhibition of Aβ 40 as a function of the concentration of the test compound.
The sandwich ELISA to detect Aβ 40 was performed in 96 well microtiter plates, which were pre-treated with goat anti-rabbit IgG (Pierce). The capture and detecting antibody pair that were used to detect Aβ 40 from cell supernatants were affinity purified pAb40 (Biosource) and biotinylated 6E10 (Signet Labs Inc.), respectively. The optimal concentration for the pAb40 antibody was 3 μg/ml in Superblock/TBS (Pierce) that was supplemented with 0.05% Tween 20 (Sigma). Optimal concentration for the detection antibody 6E10-biotinylated was 0.5 μg/ml in Superblock/TBS (Pierce) that had been supplemented with 2% normal goat serum and 2% normal mouse serum.
Cellular supernatants were incubated with the capture antibody for 3 h at 4° C., followed by 3 wash steps in TBS-tween (0.05%). The detecting antibody incubation was for 2 h at 4° C., again followed by the wash steps as described previously. The final readout of the ELISA is Time-Resolved Fluorescence (counts per minute) using Delfia reagents Streptavidin-Europium and Enhancement solutions (Perkin Elmer) and the Victor 2 multilabel counter (Perkin Elmer).

BACE1 = BACE1 (Homo sapiens, UniProt P56817); assay: In vitro enzymatic BACE FRET assay; assay type: biochemical
BACE1, sequence (P56817 46-501, species assumed): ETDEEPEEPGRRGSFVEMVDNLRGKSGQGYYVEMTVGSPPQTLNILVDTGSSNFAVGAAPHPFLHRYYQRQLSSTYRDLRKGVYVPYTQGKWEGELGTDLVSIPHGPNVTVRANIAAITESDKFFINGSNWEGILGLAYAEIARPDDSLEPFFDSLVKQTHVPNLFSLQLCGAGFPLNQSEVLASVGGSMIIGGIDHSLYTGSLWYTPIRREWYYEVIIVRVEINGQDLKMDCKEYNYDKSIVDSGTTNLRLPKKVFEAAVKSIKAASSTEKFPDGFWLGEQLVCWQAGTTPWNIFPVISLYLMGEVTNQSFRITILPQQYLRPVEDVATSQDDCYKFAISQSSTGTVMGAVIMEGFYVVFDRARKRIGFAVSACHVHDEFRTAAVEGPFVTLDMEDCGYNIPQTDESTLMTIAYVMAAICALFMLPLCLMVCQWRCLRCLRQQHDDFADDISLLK
Description: In Vitro Enzymatic BACE FRET (Fluorescence Resonance Energy Transfer) Assay
Enzyme Assay Data in the Example Table I
The assay buffer used in this screen is 0.05 M acetate, pH 4.2, 10% DMSO final, 100 uM genapol (which is a nonionic detergent, below its Critical Micelle Concentration). The Beta Secretase enzyme (0.2 nM) is pre-incubated for one hour with inhibitors, typically in about 1 uL of DMSO according to a serial dilution, are added thereto. This assay is effectively started by the addition of FRET substrate (50 nM) and the combination is incubated for one hour. The FRET assay is terminated with by addition of Tris buffer, which raises the pH to neutrality, and the fluorescence is determined. The FRET substrate is a peptide with commercially available fluorophore and quencher, on opposite sides of the BACE cleavage site. Proteolytic cleavage of the FRET substrate releases quenching of fluorescence (excitation 488 nm and […]).

Cathepsin D (Cat D) = target: T1, Cathepsin D (Cat D) (Homo sapiens, UniProt P07339); assay: In vitro enzymatic Cathepsin D (Cat D) FRET assay; assay type: biochemical; details: read-out: CatD IC50
T1 construct: made in house; host or cells: CHO cells
T1 sequence (P07339 65-412, species assumed): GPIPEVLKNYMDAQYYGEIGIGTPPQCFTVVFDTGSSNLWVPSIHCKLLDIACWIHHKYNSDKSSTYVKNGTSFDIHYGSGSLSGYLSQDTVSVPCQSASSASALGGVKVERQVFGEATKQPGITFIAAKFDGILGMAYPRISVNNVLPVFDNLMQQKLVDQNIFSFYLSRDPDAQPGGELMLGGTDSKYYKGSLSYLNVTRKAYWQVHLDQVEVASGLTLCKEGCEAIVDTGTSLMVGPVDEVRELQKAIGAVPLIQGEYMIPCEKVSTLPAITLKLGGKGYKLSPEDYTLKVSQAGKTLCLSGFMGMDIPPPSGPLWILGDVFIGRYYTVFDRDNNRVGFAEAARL
Description: In Vitro Enzymatic Cathepsin D (Cat D) FRET (Fluorescence Resonance Energy Transfer) Assay
Recombinant Cat D was expressed in CHO cells. The assay buffer for CathepsinD is 0.05 M citrate pH 3.5, 10% DMSO final, 5 mM CHAPS. The Cat D enzyme (9 nM) is pre-incubated for one hour with inhibitors, typically in about 1 uL of DMSO according to a serial dilution, is added thereto. The assays are effectively started by the addition of different FRET substrates (20 nM for Cat D) and the combination is incubated for one hour. The FRET assay is terminated with by addition of Tris buffer, which raises the pH to neutrality, and the fluorescence is determined. The FRET substrate is a peptide with commercially available fluorophore and quencher, on opposite sides of the BACE cleavage site. The Cat D substrate peptide sequence is based on sequence #1 of Table 1 from Gulnik et al. FEBS Letters v413 p 379-384 1997. Proteolytic cleavage of the FRET substrate releases quenching of fluorescence (Cat D excitation 500 nm and emission 580 nm). […]
Where available, the in-vitro Cat D FRET assay data for each of the Examples, conducted by the first procedure, is provided in Tables 1 and 3. For example, the compound of example 28 has a Cat D IC50 value of >400 uM.

[2] = average IC50, read-out: BACE1 cell assay IC50
[3] = average IC50, read-out: BACE1 Enzyme assay IC50
[4] = Aβ40, 24 h incubation, read-out: HEK cell assay IC50
[5] = read-out: BACE1 FRET assay IC50

| Compound | IC50 [1, 2] | IC50 (BACE1; [3]) | IC50 (Cathepsin D (Cat D); average IC50, first procedure) | IC50 [1, 4] | IC50 (BACE1; [5]) | IC50 (Cathepsin D (Cat D)) |
| --- | --- | --- | --- | --- | --- | --- |
| C[C@]1(c2cc(NC(=O)c3ccc(C#CC4CC4)cn3)ccc2F)N=C(N)[C@@]2(C)CC[C@@H]1S2(=O)=O [Example 64, N-(3-((1S,2R,5R)-4-amino-2,5-dimethyl-8,8-dioxido-8-thia-3-azabicyclo[3.2.1]oct-3-en-2-yl)-4-fluorophenyl)-5-(cyclopropylethynyl)-2-pyridinecarboxamide] | 5 nM | 1 nM | 470 µM |  |  |  |
| Cc1cc(OC(F)F)cnc1C(=O)Nc1ccc(F)c([C@@]2(C)N=C(N)[C@]3(C)CCC[C@H]2S3(=O)=O)c1 [Example 6, N-(3-((1R,2R,5S)-4-Amino-2,5-dimethyl-9,9-dioxido-9-thia-3-azabicyclo[3.3.1]non-3-en-2-yl)-4-fluorophenyl)-5-(difluoromethoxy)-3-methylpicolinamide] |  |  |  | 4 nM | 10 nM | 215 µM |
| Cc1cc(C(F)(F)F)cnc1C(=O)Nc1ccc(F)c([C@@]2(C)N=C(N)[C@@]3(C)CC[C@]2(C)S3(=O)=O)c1 [Example 48, N-(3-((1S,2R,5R)-4-amino-1,2,5-trimethyl-8,8-dioxido-8-thia-3-azabicyclo[3.2.1]oct-3-en-2-yl)-4-fluorophenyl)-3-methyl-5-(trifluoromethyl)-2-pyridinecarboxamide] | 4 nM | 11 nM | 54.1 µM |  |  |  |
| COc1cnc2c(Nc3ccc(F)c([C@@]4(C)N=C(N)[C@@]5(C)CC[C@@H]4S5(=O)=O)c3)ncc(F)c2c1 [Example 36, N-(3-((1S,2R,5R)-4-amino-2,5-dimethyl-8,8-dioxido-8-thia-3-azabicyclo[3.2.1]oct-3-en-2-yl)-4-fluorophenyl)-5-fluoro-3-methoxy-1,7-naphthyridin-8-amine] |  |  |  | 6 nM | 2 nM | 5490 µM |
| Cc1cc(Cl)cnc1C(=O)Nc1ccc(F)c([C@@]2(C)N=C(N)[C@@H]3CCC[C@H]2S3(=O)=O)c1 [Example 17, N-(3-((1R,2R,5S)-4-Amino-2-methyl-9,9-dioxido-9-thia-3-azabicyclo[3.3.1]non-3-en-2-yl)-4-fluorophenyl)-5-chloro-3-methylpicolinamide] |  |  |  | 64 nM | 15 nM | 2780 µM |
| COc1cnc(C(=O)Nc2ccc(F)c([C@@]3(C)N=C(N)[C@@]4(C)CC[C@@H]3S4(=O)=O)c2)cn1 [Example 37, N-(3-((1S,2R,5R)-4-amino-2,5-dimethyl-8,8-dioxido-8-thia-3-azabicyclo[3.2.1]oct-3-en-2-yl)-4-fluorophenyl)-5-methoxy-2-pyrazinecarboxamide] |  |  |  | 1 nM | 4 nM | 1170 µM |
| Cc1cc(Cl)cnc1C(=O)Nc1ccc(F)c([C@]2(C)N=C(N)[C@]3(C)CC[C@H]2S3(=O)=O)c1 [Example 34, N-(3-((1R,2S,5S)-4-amino-2,5-dimethyl-8,8-dioxido-8-thia-3-azabicyclo[3.2.1]oct-3-en-2-yl)-4-fluorophenyl)-5-chloro-3-methyl-2-pyridinecarboxamide] |  |  |  | 2030 nM | 4540 nM | 4310 µM |

Now from value to compound:

| IC50 [1, 2] | IC50 (BACE1; [3]) | IC50 (Cathepsin D (Cat D); average IC50, first procedure) | IC50 [1, 4] | IC50 (BACE1; [5]) | IC50 (Cathepsin D (Cat D)) | Compound |
| --- | --- | --- | --- | --- | --- | --- |
| 313 nM | 84 nM | > 44.4 µM |  |  |  | C[C@]12CC[C@H]([C@@](C)(c3cc(Nc4nccc5nc(C(F)(F)F)cnc45)ccc3F)N=C1N)S2(=O)=O [Example 87, N-(3-((1R,2R,5S)-4-amino-2,5-dimethyl-8,8-dioxido-8-thia-3-azabicyclo[3.2.1]oct-3-en-2-yl)-4-fluorophenyl)-2-(trifluoromethyl)pyrido[3,4-b]pyrazin-5-amine] |
| 21 nM | 3 nM | 614 µM |  |  |  | CC#CCOc1cnc2c(Nc3ccc(F)c([C@@]4(C)N=C(N)[C@]5(C)CC[C@H]4S5(=O)=O)c3)ncc(F)c2c1 [Example 135, N-(3-((1R,2R,5S)-4-amino-2,5-dimethyl-8,8-dioxido-8-thia-3-azabicyclo[3.2.1]oct-3-en-2-yl)-4-fluorophenyl)-3-(2-butyn-1-yloxy)-5-fluoro-1,7-naphthyridin-8-amine] |
| 25 nM | 56 nM | > 400 µM |  |  |  | C[C@]1(c2cc(NC(=O)c3ccc(C#N)cc3F)ccc2F)N=C(N)[C@@]2(C)CC[C@@H]1S2(=O)=O [Example 127, N-(3-((1S,2R,5R)-4-amino-2,5-dimethyl-8,8-dioxido-8-thia-3-azabicyclo[3.2.1]oct-3-en-2-yl)-4-fluorophenyl)-4-cyano-2-fluorobenzamide] |
| 327 nM | 408 nM | 1180 µM |  |  |  | COC[C@]12CC[C@H]([C@@](C)(c3cc(Nc4ncnc5cc(Cl)cnc45)ccc3F)N=C1N)S2(=O)=O [Example 141, N-(3-((1R,2R,5S)-4-amino-5-(methoxymethyl)-2-methyl-8,8-dioxido-8-thia-3-azabicyclo[3.2.1]oct-3-en-2-yl)-4-fluorophenyl)-7-chloropyrido[3,2-d]pyrimidin-4-amine] |
| 28 nM | 6 nM | 317 µM |  |  |  | COc1cnc2c(Nc3ccc(F)c([C@@]4(C)N=C(N)[C@@]5(CF)CC[C@@H]4S5(=O)=O)c3)ncc(F)c2c1 [Example 99, N-(3-((1S,2R,5R)-4-amino-5-(fluoromethyl)-2-methyl-8,8-dioxido-8-thia-3-azabicyclo[3.2.1]oct-3-en-2-yl)-4-fluorophenyl)-5-fluoro-3-methoxy-1,7-naphthyridin-8-amine] |
| 103 nM | 588 nM | 4440 µM |  |  |  | COc1ccc(C(=O)Nc2ccc(F)c([C@@]3(C)N=C(N)[C@]4(C)CC[C@H]3S4(=O)=O)c2)c(F)c1 [Example 124, N-(3-((1R,2R,5S)-4-amino-2,5-dimethyl-8,8-dioxido-8-thia-3-azabicyclo[3.2.1]oct-3-en-2-yl)-4-fluorophenyl)-2-fluoro-4-methoxybenzamide] |
| 0.2 nM | 0.5 nM | 257 µM |  |  |  | CC#CCOc1cnc(C(=O)Nc2ccc(F)c([C@@]3(C)N=C(N)[C@@]4(CF)CC[C@@H]3S4(=O)=O)c2)cn1 [Example 94, N-(3-((1S,2R,5R)-4-amino-5-(fluoromethyl)-2-methyl-8,8-dioxido-8-thia-3-azabicyclo[3.2.1]oct-3-en-2-yl)-4-fluorophenyl)-5-(2-butyn-1-yloxy)-2-pyrazinecarboxamide] |
| 73 nM | 315 nM | 2200 µM |  |  |  | C[C@]12CC[C@H]([C@@](C)(c3cc(NC(=O)c4c(F)cc(Br)cc4F)ccc3F)N=C1N)S2(=O)=O [Example 126, N-(3-((1R,2R,5S)-4-amino-2,5-dimethyl-8,8-dioxido-8-thia-3-azabicyclo[3.2.1]oct-3-en-2-yl)-4-fluorophenyl)-4-bromo-2,6-difluorobenzamide] |
| 47 nM | 44 nM | 255 µM |  |  |  | Cc1cc(C(F)(F)F)cnc1C(=O)Nc1ccc(F)c([C@@]2(CF)N=C(N)[C@]3(C)CC[C@H]2S3(=O)=O)c1 (single isomer, unassigned) [Example 116] |
